# Measured values from US20250296971A1, “GASTRIC INHIBITORY PEPTIDE RECEPTOR LIGANDS” (priority 2021, published 2025).
# Like-named read-outs stand apart in the source and are kept apart here. *1 amine or outer side, *2 acyl side, *3 side chain or, on linkers, in order; H or OH if unused. Where a SMILES comes first, the peptide text is derived from it. Bridges are numbered along the chain shown (N, C = ends). [ ]: non-standard residue; d: D form. The star is where a group is joined. X13 = O=C(CN1CCN2CCN3CCN(CC1)CC(=O)[O][Lu]([O]C(=O)C2)[O]C(=O)C3)NCCCOCCOCCOCCCN*; X3 = O=C(O)CN1CCN(CC(=O)O)CCN(CC(=O)NCCCOCCOCCOCCCN*)CCN(CC(=O)O)CC1; Pro(trans-4-NH2) = O=C([C@@H]1C[C@@H](N[*:3])CN1[*:1])[*:2]; DOTA = O=C(O)CN1CCN(CC(=O)O)CCN(CC(=O)*)CCN(CC(=O)O)CC1; Trp(5-Cl) = N[C@@H](Cc1c[nH]c2ccc(Cl)cc12)C(=O)O; Pyridine(2,6-diCH2) = c1cc(C[*:1])nc(C[*:2])c1; 1Nal = N[C@@H](Cc1cccc2ccccc12)C(=O)O; X23 = O=C(c1cccc(CSCCN[*:1])c1)[*:2]; mXylylene = c1cc(C[*:1])cc(C[*:2])c1; X7 = c1cc(CSCCN[*:2])cc(C[*:1])c1; Hyp = O=C(O)[C@@H]1C[C@@H](O)CN1; Suc = O=C(CCC(=O)[*:2])[*:1]; Api = NC1(C(=O)O)CCNCC1; Thp = NC1(C(=O)O)CCOCC1; Dap = NC[C@H](N)C(=O)O; Nleu = CC(C)CNCC(=O)O; Aib = CC(C)(N)C(=O)O; Bn = c1ccc(C*)cc1
# Target: T1, GIPR (CHO-K1-hGIPR cells) (Homo sapiens, UniProt P48546)
# T1 construct: host or cells: CHO-K1
# T1 sequence (P48546 22-466): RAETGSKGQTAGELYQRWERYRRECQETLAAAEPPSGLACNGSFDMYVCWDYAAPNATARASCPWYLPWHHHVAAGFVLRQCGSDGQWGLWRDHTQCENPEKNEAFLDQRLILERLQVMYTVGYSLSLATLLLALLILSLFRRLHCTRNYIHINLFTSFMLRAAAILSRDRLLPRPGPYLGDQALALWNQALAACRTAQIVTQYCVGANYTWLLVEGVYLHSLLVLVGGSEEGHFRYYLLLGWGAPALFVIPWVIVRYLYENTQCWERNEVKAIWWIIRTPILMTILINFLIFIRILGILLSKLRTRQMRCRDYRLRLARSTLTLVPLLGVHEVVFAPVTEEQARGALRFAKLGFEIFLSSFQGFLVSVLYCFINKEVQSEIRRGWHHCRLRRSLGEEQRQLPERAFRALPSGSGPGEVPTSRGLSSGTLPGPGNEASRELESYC
# Assay: FACS binding assay
# Method in brief: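 CHO-K1 cells stably expressing human GIPR were detached with Accutase, suspended at 500.000 cells per mL in PBS with 1% FCS, and washed ice-cold. Bound peptide was detected with 1 μg/mL APC-streptavidin for 30 min on ice.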
# [1] = competition with 20 nM GIP-057, 4° C. for 1 hour, read-out: pIC50 Category (converted)
# [2] = competition with 20 nM GIP-057, 4° C., 1 hour, read-out: pIC50 Category (converted)
SMILES,IC50 [1] [nM],also measured
"CC[C@H](C)[C@@H]1NC(=O)[C@H](CC(C)C)NC(=O)C(C)(C)NC(=O)[C@@H](NC(=O)[C@H](Cc2ccccc2)NC(=O)[C@H](CCC(=O)O)NC(=O)[C@@H]2CCCN2C(=O)[C@H](Cc2cccc3ccccc23)NC(=O)[C@H](Cc2c[nH]c3ccccc23)NC(=O)[C@H](CC(=O)O)NC(C)=O)CSCc2cccc(c2)CSC[C@@H](C(N)=O)NC1=O [GIP-344, Ac-Asp-Trp-1Ni-Pro-Glu-Phe-[Cys(3MeBn)-Aib-Leu-Ile-Cys]-NH2] (Ac-DW[1Nal]PEFC[Aib]LIC-NH2; linker 7-11 via mXylylene)",> 1000,–
"CC[C@H](C)[C@@H]1NC(=O)[C@H](CC(C)C)NC(=O)C(C)(C)NC(=O)[C@@H](NC(=O)[C@@H](CC(C)C)NC(=O)[C@H](CCC(=O)O)NC(=O)[C@@H]2C[C@@H](O)CN2C(=O)[C@H](Cc2c[nH]c3ccc(Cl)cc23)NC(=O)[C@H](Cc2c[nH]c3ccccc23)NC(=O)[C@H](CC(=O)O)NC(=O)CCC(=O)NCCCOCCOCCOCCCNC(=O)CN2CCN3CCN4CCN(CC2)CC(=O)[O][Lu]([O]C(=O)C3)[O]C(=O)C4)CSCc2cccc(c2)CSCCNC1=O [GIP-159, LuDOTA-Ttds-Asp-Trp-5Clw-Hyp-Glu-leu-[Cys(3MeBn)-Aib-Leu-Ile-AET]] ({X13-Suc}-DW[Trp(5-Cl)][Hyp]E[dL]C[Aib]LI; linker 7-C via X7)",–,"IC50 (pIC50 Category, competition with 20 nM GIP-057, 4° C., 1 hour): < 10 nM"
"CC[C@H](C)[C@@H]1NC(=O)[C@H](CC(C)C)NC(=O)C2(CCN(C(=O)CN3CCN(CC(=O)O)CCN(CC(=O)O)CCN(CC(=O)O)CC3)CC2)NC(=O)[C@@H](NC(=O)[C@@H](CC(C)C)NC(=O)[C@H](CCC(=O)O)NC(=O)[C@@H]2C[C@@H](NC(=O)CN3CCN(CC(=O)O)CCN(CC(=O)O)CCN(CC(=O)O)CC3)CN2C(=O)[C@H](Cc2c[nH]c3ccc(Cl)cc23)NC(=O)[C@H](Cc2c[nH]c3ccccc23)NC(=O)[C@H](CC(=O)O)NC(=O)CCC(=O)NCCCOCCOCCOCCCNC(=O)CN2CCN(CC(=O)O)CCN(CC(=O)O)CCN(CC(=O)O)CC2)CSCc2cccc(n2)CSC[C@@H](C(=O)N[C@@H](CCCCNC(=O)CN2CCN(CC(=O)O)CCN(CC(=O)O)CCN(CC(=O)O)CC2)C(N)=O)NC1=O [GIP-056, DOTA-Ttds-Asp-Trp-5Clw-Tap(DOTA)-Glu-leu-[Cys(2Lut)-Apc(DOTA)-Leu-Ile-Cys]-Lys(DOTA)-NH2] ({X3-Suc}-DW[Trp(5-Cl)][Pro(trans-4-NH2)](DOTA)E[dL]C[Api](DOTA)LICK(DOTA)-NH2; linker 7-11 via Pyridine(2,6-diCH2))",–,IC50 [2]: < 10 nM
"CC[C@H](C)[C@@H]1NC(=O)[C@H](CC(C)C)NC(=O)C2(CCOCC2)NC(=O)[C@@H](NC(=O)[C@@H](CC(C)C)NC(=O)[C@H](CCC(=O)O)NC(=O)CN(CC(C)C)C(=O)[C@H](Cc2c[nH]c3ccc(Cl)cc23)NC(=O)[C@H](Cc2c[nH]c3ccccc23)NC(=O)[C@H](CC(=O)O)NC(C)=O)CSCc2cccc(n2)CSC[C@@H](C(N)=O)NC1=O [GIP-184, Ac-Asp-Trp-5Clw-Nleu-Glu-leu-[Cys(2Lut)-Thp-Leu-Ile-Cys]-NH2] (Ac-DW[Trp(5-Cl)][Nleu]E[dL]C[Thp]LIC-NH2; linker 7-11 via Pyridine(2,6-diCH2))",–,IC50 [2]: < 10 nM
CC[C@H](C)[C@H](NC(=O)[C@H](CC(C)C)NC(=O)[C@H](C)NC(=O)[C@H](CSCc1ccccc1)NC(=O)[C@H](CC(C)C)NC(=O)[C@H](CCC(=O)O)NC(=O)[C@@H]1CCCN1C(=O)[C@H](Cc1c[nH]c2ccccc12)NC(=O)[C@H](Cc1c[nH]c2ccccc12)NC(=O)[C@H](CC(=O)O)NC(=O)[C@H](Cc1ccc(O)cc1)NC(=O)[C@@H](N)CCSC)C(=O)N[C@@H](CSC)C(N)=O [GIP-368] (H-MYDWWPELC(Bn)ALIC(Me)-NH2),100 to 794,–

# Continued, in another order:
IC50 [1] [nM],SMILES,also measured
> 1000,CC[C@H](C)[C@@H]1NC(=O)[C@H](CC(C)C)NC(=O)[C@H](C)NC(=O)[C@@H](NC(=O)[C@H](C)NC(=O)[C@H](CCC(=O)O)NC(=O)[C@@H]2CCCN2C(=O)[C@H](Cc2c[nH]c3ccccc23)NC(=O)[C@H](Cc2c[nH]c3ccccc23)NC(=O)[C@H](CC(=O)O)NC(=O)[C@H](Cc2ccc(O)cc2)NC(=O)[C@@H](N)CCSC)CSCc2cccc(c2)CSC[C@@H](C(N)=O)NC1=O [GIP-336] (H-MYDWWPEACALIC-NH2; linker 9-13 via mXylylene),–
< 10,"CC[C@H](C)[C@@H]1NC(=O)[C@H](CC(C)C)NC(=O)C(C)(C)NC(=O)[C@@H](NC(=O)[C@@H](CC(C)C)NC(=O)[C@H](CCC(=O)O)NC(=O)[C@@H]2CCCN2C(=O)[C@H](Cc2c[nH]c3ccc(Cl)cc23)NC(=O)[C@H](Cc2c[nH]c3ccccc23)NC(=O)[C@H](CC(=O)O)NC(=O)CCC(=O)NCCCOCCOCCOCCCNC(=O)CN2CCN(CC(=O)O)CCN(CC(=O)O)CCN(CC(=O)O)CC2)CNC(=O)c2cccc(c2)CSCCNC1=O [GIP-358, DOTA-Ttds-Asp-Trp-5Clw-Pro-Glu-leu-[Dap(3MeBz)-Aib-Leu-Ile-AET]] ({X3-Suc}-DW[Trp(5-Cl)]PE[dL][Dap][Aib]LI[X23]; lactam 7-C)",–
